# Assay results from patent US10729738B2, “Hindered disulfide drug conjugates” (priority 2015, dated 2020).
# Test: In vitro disulfide cleavage and immolation by incubation with cysteine or glutathione (LC/MS)
# Format: physicochemical
# Details: for Percentage of all products: pH 7.0, 37° C.
# Protocol: In a first phase of the experiment, disulfide cleavage and immolation by incubation with cysteine and glutathione—with the thiol concentrations mimic those in plasma and cancer cells—was investigated using unconjugated small molecule model systems with para-nitro-pyridyl disulfide-containing linker drug analogs 1, 2 and 11 below. In particular, cleavage and immolation was evaluated in vitro by incubation at […] with cysteine ([…] or 200 μM) or glutathione (GSH, 4 mM) in 100 mM Tris buffer pH 7.0 containing 5% methanol at 37° C. Aliquots were taken at specified time points and the samples were analyzed by LC/MS on Sciex TripleTOF 5600 on a Hypersil Gold C18 column (100×2.1, […], Thermo Scientific). The column was eluted by a gradient of buffer A (0.1% formic acid in 10 mM ammonium acetate) to buffer B (0.1% formic acid in 10 mM ammonium acetate in 90% acetonitrile), 5% B 0-0.5 min, 5-25% B 0.5-8 min, 25-75% B 8-13 min, and 75-95% B 13-13.5 min, 95% B 13.5-14.5 min, 95-5% B 14.5-15 min at 0.4 mL/min. Under these conditions, para-nitropyridyl thiol was eluted at 5.3 min. All products (compounds 1, 2, 11, 3a, 3b, 4a, 4b, 12a, 12 b, 6, 7, 13 and 8) were separated and characterized by LC/MS/MS in a positive ESI ion mode. All analytes had the protonated molecular MH^+ as the major species with little source fragmentation. Full scan accurate mass peak areas were used to estimate relative abundance of each component and the disappearance of 1, 2, and 11 estimated relative full scan peak areas was consistent with that estimated based on the relative abundance compared to time 0 by MS or UV. The results are reported in Table 15 below and the analytical results are presented in Table 16 below where “Cmpd” refers to compound, “RT” refers to retention time in minutes, and “Calc. Mass” refers to calculated mass. The relative abundance of disulfide cleavage and immolation products over time were evaluated and are disclosed in FIGS. 12A to 12C, 13A to 13C, 14A to 14C and 15A to 15C where the products were monitored by LC/MS from incubations of linker drugs 1, 2, and 11 at pH 7.0 and 37° C. in the presence of: 0.2 mM cysteine (FIGS. 12A, 12B and 12C); 0.03 mM cysteine (FIGS. 13A, 13B and 13C); 4 mM glutathione (FIGS. 14A, 14B and 14C); and 0.03 mM glutathione (FIGS. 15A, 15B and 15C). In FIGS. 12A to 12C, 13A to 13C, 14A to 14C and 15A to 15C, compound reference numbers 1, 2, 3a, 3b, 4a, 4b, 6, 7, 8, 11, 12a, 12b and 13 correspond to the structures below.
smiles,measurement,setting,value
C=C1C[C@H]2C=Nc3cc(OCCCCCOc4cc5c(cc4OC)C(=O)N4CC(=C)C[C@H]4C(O)N5C(=O)OCC4(S)CCC4)c(OC)cc3C(=O)N2C1 (stereo partly shown) [Compound 13],Percentage of all products,"30 μM cysteine, 1 h",1.3%
same,Percentage of all products,"30 μM cysteine, 4 h",1.1%
same,Percentage of all products,"30 μM cysteine, 24 h",0.1%
same,Percentage of all products,"200 μM cysteine, 1 h",3.2%
same,Percentage of all products,"200 μM cysteine, 4 h",1.6%
same,Percentage of all products,"200 μM cysteine, 24 h",0%
same,Percentage of all products,"4 mM GSH, 1 h",2.3%
same,Percentage of all products,"4 mM GSH, 4 h",0%
same,Percentage of all products,"4 mM GSH, 24 h",0%
same,Immolation of thiol intermediate,incubation with cysteine or glutathione,efficient immolation
C=C1CC2C=Nc3cc(OCCCCCOc4cc5c(cc4OC)C(=O)N4CC(=C)CC4C(O)N5C(=O)OCC(C)SSCC(N)C(=O)O)c(OC)cc3C(=O)N2C1 (stereo not shown) [Compound 3a],Percentage of all products,"30 μM cysteine, 1 h",80.1%
same,Percentage of all products,"30 μM cysteine, 4 h",79.9%
same,Percentage of all products,"30 μM cysteine, 24 h",75.0%
same,Percentage of all products,"200 μM cysteine, 1 h",5.6%
same,Percentage of all products,"200 μM cysteine, 4 h",1.9%
same,Percentage of all products,"200 μM cysteine, 24 h",0%
C=C1C[C@H]2C=Nc3cc(OCCCCCOc4cc5c(cc4OC)C(=O)N4CC(=C)C[C@H]4C(O)N5C(=O)OCC4(SSC[C@H](N)C(=O)O)CCC4)c(OC)cc3C(=O)N2C1 (stereo partly shown) [Compound 12a],Percentage of all products,"30 μM cysteine, 1 h",73.5%
same,Percentage of all products,"30 μM cysteine, 4 h",74.8%
same,Percentage of all products,"30 μM cysteine, 24 h",66.7%
same,Percentage of all products,"200 μM cysteine, 1 h",21.5%
same,Percentage of all products,"200 μM cysteine, 4 h",11.6%
same,Percentage of all products,"200 μM cysteine, 24 h",0.8%
C=C1CC2C=Nc3cc(OCCCCCOc4cc5c(cc4OC)C(=O)N4CC(=C)CC4C(O)N5C(=O)OCC(C)SSc4ccc([N+](=O)[O-])cn4)c(OC)cc3C(=O)N2C1 (stereo not shown) [Compound 1],Percentage of all products,"30 μM cysteine, 1 h",10.6%
same,Percentage of all products,"30 μM cysteine, 4 h",7.9%
same,Percentage of all products,"30 μM cysteine, 24 h",4.5%
same,Percentage of all products,"200 μM cysteine, 1 h",2.8%
same,Percentage of all products,"200 μM cysteine, 4 h",1.0%
same,Percentage of all products,"200 μM cysteine, 24 h",0%
same,Percentage of all products,"4 mM GSH, 1 h",9.1%
same,Percentage of all products,"4 mM GSH, 4 h",0.9%
same,Percentage of all products,"4 mM GSH, 24 h",0.1%
C=C1C[C@H]2C=Nc3cc(OCCCCCOc4cc5c(cc4OC)C(=O)N4CC(=C)C[C@H]4C(O)N5C(=O)OCC4(SSC[C@H](N)C(=O)O)CC4)c(OC)cc3C(=O)N2C1 (stereo partly shown) [Compound 4a],Percentage of all products,"30 μM cysteine, 1 h",73.7%
same,Percentage of all products,"30 μM cysteine, 4 h",71.1%
same,Percentage of all products,"30 μM cysteine, 24 h",75.9%
same,Percentage of all products,"200 μM cysteine, 1 h",39.1%
same,Percentage of all products,"200 μM cysteine, 4 h",15.2%
same,Percentage of all products,"200 μM cysteine, 24 h",3.2%
C=C1C[C@H]2C=Nc3cc(OCCCCCOc4cc5c(cc4OC)C(=O)N4CC(=C)C[C@H]4C(O)N5C(=O)OCC4(SSC[C@H](NC(=O)CC[C@H](N)C(=O)O)C(=O)NCC(=O)O)CC4)c(OC)cc3C(=O)N2C1 (stereo partly shown) [Compound 4b],Percentage of all products,"4 mM GSH, 1 h",1.1%
same,Percentage of all products,"4 mM GSH, 4 h",0.4%
same,Percentage of all products,"4 mM GSH, 24 h",1.0%
C=C1C[C@H]2C=Nc3cc(OCCCCCOc4cc5c(cc4OC)C(=O)N4CC(=C)C[C@H]4C(O)N5C(=O)OCC4(SSc5ccc([N+](=O)[O-])cn5)CCC4)c(OC)cc3C(=O)N2C1 (stereo partly shown) [Compound 11],Percentage of all products,"30 μM cysteine, 1 h",21.2%
same,Percentage of all products,"30 μM cysteine, 4 h",15.5%
same,Percentage of all products,"30 μM cysteine, 24 h",4.8%
same,Percentage of all products,"200 μM cysteine, 1 h",6.5%
same,Percentage of all products,"200 μM cysteine, 4 h",3.6%
same,Percentage of all products,"200 μM cysteine, 24 h",1.5%
same,Percentage of all products,"4 mM GSH, 1 h",9.1%
same,Percentage of all products,"4 mM GSH, 4 h",4.5%
same,Percentage of all products,"4 mM GSH, 24 h",0.7%
C=C1C[C@H]2C=Nc3cc(OCCCCCOc4cc5c(cc4OC)C(=O)N4CC(=C)C[C@H]4C(O)N5C(=O)OCC4(SSC[C@H](NC(=O)CC[C@H](N)C(=O)O)C(=O)NCC(=O)O)CCC4)c(OC)cc3C(=O)N2C1 (stereo partly shown) [Compound 12b],Percentage of all products,"4 mM GSH, 1 h",1.6%
same,Percentage of all products,"4 mM GSH, 4 h",0.2%
same,Percentage of all products,"4 mM GSH, 24 h",0%
C=C1C[C@H]2C=Nc3cc(OCCCCCOc4cc5c(cc4OC)C(=O)N4CC(=C)C[C@H]4C(O)N5C(=O)OCC4(SSc5ccc([N+](=O)[O-])cn5)CC4)c(OC)cc3C(=O)N2C1 (stereo partly shown) [Compound 2],Percentage of all products,"30 μM cysteine, 1 h",21.1%
same,Percentage of all products,"30 μM cysteine, 4 h",19.1%
same,Percentage of all products,"30 μM cysteine, 24 h",12.0%
same,Percentage of all products,"200 μM cysteine, 1 h",16.1%
same,Percentage of all products,"200 μM cysteine, 4 h",10.8%
same,Percentage of all products,"200 μM cysteine, 24 h",7.0%
same,Percentage of all products,"4 mM GSH, 1 h",17.9%
same,Percentage of all products,"4 mM GSH, 4 h",9.0%
same,Percentage of all products,"4 mM GSH, 24 h",4.3%
"C=C1CC2C=Nc3cc(OCCCCCOc4cc5c(cc4OC)C(=O)N4CC(=C)CC4C=N5)c(OC)cc3C(=O)N2C1 (stereo not shown) [Compound 8, reference compound]",Percentage of all products,"30 μM cysteine, 1 h, listed as 1 to 8, compound 1 to 8 conversion",6.8%
same,Percentage of all products,"30 μM cysteine, 1 h, listed as 2 to 8, compound 2 to 8 conversion",0.1%
same,Percentage of all products,"30 μM cysteine, 1 h, listed as 11 to 8, compound 11 to 8 conversion",3.6%
same,Percentage of all products,"30 μM cysteine, 4 h, listed as 1 to 8, compound 1 to 8 conversion",10.5%
same,Percentage of all products,"30 μM cysteine, 4 h, listed as 2 to 8, compound 2 to 8 conversion",0.1%
same,Percentage of all products,"30 μM cysteine, 4 h, listed as 11 to 8, compound 11 to 8 conversion",8.7%
same,Percentage of all products,"30 μM cysteine, 24 h, listed as 1 to 8, compound 1 to 8 conversion",20.5%
same,Percentage of all products,"30 μM cysteine, 24 h, listed as 2 to 8, compound 2 to 8 conversion",0.5%
same,Percentage of all products,"30 μM cysteine, 24 h, listed as 11 to 8, compound 11 to 8 conversion",27.6%
same,Percentage of all products,"200 μM cysteine, 1 h, listed as 1 to 8, compound 1 to 8 conversion",83.7%
same,Percentage of all products,"200 μM cysteine, 1 h, listed as 2 to 8, compound 2 to 8 conversion",0.1%
same,Percentage of all products,"200 μM cysteine, 1 h, listed as 11 to 8, compound 11 to 8 conversion",68.8%
same,Percentage of all products,"200 μM cysteine, 4 h, listed as 1 to 8, compound 1 to 8 conversion",94.4%
same,Percentage of all products,"200 μM cysteine, 4 h, listed as 2 to 8, compound 2 to 8 conversion",0.3%
same,Percentage of all products,"200 μM cysteine, 4 h, listed as 11 to 8, compound 11 to 8 conversion",83.2%
same,Percentage of all products,"200 μM cysteine, 24 h, listed as 1 to 8, compound 1 to 8 conversion",99.9%
same,Percentage of all products,"200 μM cysteine, 24 h, listed as 2 to 8, compound 2 to 8 conversion",2.5%
same,Percentage of all products,"200 μM cysteine, 24 h, listed as 11 to 8, compound 11 to 8 conversion",97.7%
same,Percentage of all products,"4 mM GSH, 1 h, listed as 1 to 8, compound 1 to 8 conversion",88.0%
same,Percentage of all products,"4 mM GSH, 1 h, listed as 2 to 8, compound 2 to 8 conversion",0.2%
same,Percentage of all products,"4 mM GSH, 1 h, listed as 11 to 8, compound 11 to 8 conversion",86.7%
same,Percentage of all products,"4 mM GSH, 4 h, listed as 1 to 8, compound 1 to 8 conversion",98.5%
same,Percentage of all products,"4 mM GSH, 4 h, listed as 2 to 8, compound 2 to 8 conversion",0.4%
same,Percentage of all products,"4 mM GSH, 4 h, listed as 11 to 8, compound 11 to 8 conversion",94.9%
same,Percentage of all products,"4 mM GSH, 24 h, listed as 1 to 8, compound 1 to 8 conversion",99.9%
same,Percentage of all products,"4 mM GSH, 24 h, listed as 2 to 8, compound 2 to 8 conversion",2.3%
same,Percentage of all products,"4 mM GSH, 24 h, listed as 11 to 8, compound 11 to 8 conversion",99.3%
C=C1CC2C=Nc3cc(OCCCCCOc4cc5c(cc4OC)C(=O)N4CC(=C)CC4C(O)N5C(=O)OCC(C)SSCC(NC(=O)CCC(N)C(=O)O)C(=O)NCC(=O)O)c(OC)cc3C(=O)N2C1 (stereo not shown) [Compound 3b],Percentage of all products,"4 mM GSH, 1 h",0.3%
same,Percentage of all products,"4 mM GSH, 4 h",0%
same,Percentage of all products,"4 mM GSH, 24 h",0%
